Experimental data reported in publication PMC7228129, “Evaluation of Developmental Toxicity, Developmental Neurotoxicity, and Tissue Dose in Zebrafish Exposed to GenX and Other PFAS” (Environmental Health Perspectives, 2020).
Entries after “also recorded” stand apart in the source; their conditions may differ. Like-named read-outs stand apart in the source and are kept apart here.

Legend:
[1] = system: zebrafish; experiment: Developmental toxicity (DevTox) assay; assay type: in vivo, Danio rerio; conditions: for DevTox assay phenotype: Table 5 summary, this study (some rows also list literature); for EC50: Hill fit
Procedure: (§1) At 0 dpf, zebrafish embryos were bleached as previously described ([Tal et al. 2017]). A single embryo at the dome-to-epiboly stages ([Kimmel et al. 1995]) was placed into each individual well of a 96-well plate containing a 40-μm nylon mesh filter (Millipore, Catalog No. MANMN4010) with 400μL of 10% Hanks’ balanced salt solution (HBSS) per well. Filter inserts containing zebrafish embryos were transferred to 96-well culture trays (Millipore, Catalog No. MAMCS9610) containing 250μL of 10% HBSS ([Westerfield 2007]) and 1μL of 250× working solutions per well. A final concentration of 0.4% DMSO was used for all exposure groups and as a vehicle control. In the case of GenX Free Acid in Study 2 (Figure 1), DI water was used as a vehicle control. Daily, from 1–5 dpf, plates underwent 100% media changes to refresh chemical dosing solutions by blotting (Brandel; Catalog No. FPXLR-196) and transferring mesh inserts containing zebrafish to new bottom plates (Millipore; Catalog No. MAMCS9610). To minimize evaporation, plates were sealed (Biorad; Catalog No. MSA5001) and wrapped with parafilm. Plates were maintained on a 14 h:10 h light cycle at 26.0°C and scored daily for death, malformations, hatching, and swim bladder inflation. At 6 dpf, plates were evaluated by two independent observers and DevTox or DNT assays were performed or media and tissue were collected for analytical chemistry analyses as described below.
In Study 1 (Figure 1), zebrafish were exposed, as described in the “Chemical Exposures” section, to 0.04, 0.1, 0.4, 1.1, 3.1, 9.3, 27.2, or 80.0μM PFOS, PFOA, PFHxS, PFHxA, or ADONA, or 0.4% DMSO. Six 96-well plates were tested with a single chemical concentration included on each microtiter plate. Subsequently, as part of Study 1, zebrafish were exposed to 0.04, 0.1, 0.4, 1.1, 3.1, 9.3, 27.2, or 80.0μM PFESA1, or 0.4% DMSO. In Study 2, GenX Free Acid diluted in DI water was tested by exposing zebrafish to 0.04, 0.1, 0.4, 1.1, 3.1, 9.3, 27.2, or 80.0μM of the compound or DI water. […] Zebrafish were exposed to 1.7, 3.1, 5.5, 9.8, 17.6, 31.4, 56.0, or 100.0μM of PFBS, PFHxS, PFHpS, or PFOS or 0.4% DMSO. Subsequently, zebrafish were exposed to 1.7, 3.1, 5.5, 9.8, 17.6, 31.4, 56.0, or 100.0μM PFPeS, or 0.4% DMSO. Chlorpyrifos was used as positive control for malformations ( 8.0μM ) and lethality ( 80.0μM ) ([Padilla et al. 2012]; [Tal et al. 2017]). To conduct DevTox assay assessments, at 6 dpf, two independent observers evaluated zebrafish larvae for survival, hatching, swim bladder inflation, and malformations, including curved body axis, shortened trunk, pericardial edema, yolk sac edema, necrotic yolk sac, pectoral fin abnormalities and head/jaw abnormalities. Directly after assessments, data were reviewed and, in the case of discrepancies, consensus calls were reached. Toxicity values were assigned to descriptive data (i.e., normal=0 , abnormal=20 , severely abnormal=50 , and dead=100 ), modified from a previously described approach ([Padilla et al. 2012]). Briefly, animals with a single malformation were scored as abnormal, whereas animals with ≥2 malformations were scored as severely abnormal.
For the DevTox assay, a Kruskal-Wallace nonparametric one-way analysis of variance (ANOVA) with a Dunn’s multiple comparison test was used to detect differences between exposure groups (* p<0.05 , ** p<0.0001 ) and LOEC values were determined. If a test for linear trend was significant ( p<0.05 ), with developmental toxicity observed at the highest concentration tested, nonlinear regression was performed with a Hill slope curve fitting for half maximal effective concentration ( EC50 ) value determinations.

[2] = system: zebrafish; conditions: Table 5 summary; zebrafish; ref Hagenaars et al. 2011; Ulhaq et al. 2013a; cited from earlier work
[3] = system: zebrafish; experiment: Developmental neurotoxicity (DNT) assay, light/dark locomotor behavior test; assay type: in vivo, Danio rerio; conditions: for DNT assay phenotype: Table 5 summary, this study (some rows also list literature); for Concentration causing hyperactivity in D1 period: dark 1; for Concentration causing hyperactivity in D1 period / Concentration causing hyperactivity in D2 period / Concentration causing hyperactivity in L1 period / Concentration causing hyperactivity in L2 period: vs 0.4% DMSO; for Concentration causing hyperactivity in D2 period: dark 2; for Concentration causing hyperactivity in L1 period: light 1; for Concentration causing hyperactivity in L2 period: light 2
Procedure: as §1
To increase the likelihood of observing behavioral effects in morphologically normal larvae, the highest concentration evaluated in the DNT assay was the lowest observed effect concentration (LOEC) determined in DevTox assay. Zebrafish were exposed in parallel to 4.4, 7.9, 14.0, 25.1, 44.8, or 80.0μM PFOA, PFHxS, PFHxA, or ADONA or 0.2, 0.3, 0.6, 1.0, 1.8, or 3.1μM PFOS or 0.4% DMSO. Subsequently, as part of Study 1, exposure to 4.4, 7.9, 14.0, 25.1, 44.8, or 80.0μM PFESA1, or 0.4% DMSO was evaluated. In Study 2, zebrafish were exposed to 4.4, 7.9, 14.0, 25.1, 44.8, or 80.0μM GenX Free Acid, or DI water. In Study 3, to increase the likelihood of observing malformations with shorter-chain compounds at multiple test concentrations, the highest concentration evaluated was 100.0μM . Zebrafish were exposed to 5.5, 9.8, 17.6, 31.4, 56.0, or 100.0μM PFBS; 3.1, 5.5, 9.8, 17.6, 31.4, or 56.0μM PFHxS; 1.7, 3.1, 5.5, 9.8, 17.6, or 31.4μM PFHpS; or 0.5, 1.0, 1.7, 3.1, 5.5, or 9.8μM PFOS, or 0.4% DMSO. Subsequently, as part of Study 3, zebrafish were exposed to 3.1, 5.5, 9.8, 17.6, 31.4, or 56.0μM PFPeS, or 0.4% DMSO. Chemical exposures and assessments were performed daily, as described above. To evaluate swimming behavior in a light/dark behavior test, microtiter plates were placed in a dark, temperature-controlled behavior testing room set to 26.0°C for at least 2 h prior to testing. At the time of testing, microtiter plates were placed on a Noldus tracking apparatus. Locomotor activity was recorded (30 frames/s) for a total of 60 min consisting of a 20-min dark acclimation period (0 lux) that was not analyzed followed by a 40-min testing period consisting of a 20-min light period (5.0 lux) and 20-min dark period (0 lux). Videos were analyzed using Ethovision software (version 3.1; Noldus Information Technology) as previously described ([Jarema et al. 2015]). Locomotor activity was collected for each individual fish for each 2-min period (minimum distance moved, set to 0.135cm ). Thus, for a 40-min test, 20 data points were collected per larvae. […] Four additional criteria for inclusion of individual larvae were applied. One, all larvae that were identified as abnormal, severely abnormal, or dead were excluded. Two, larvae with uninflated swim bladders were removed from analyses. Three, individual larvae that moved <2cm in either […] dark period were removed.

[4] = system: zebrafish; conditions: Table 5 summary, ref Ulhaq et al. 2013b; cited from earlier work
[5] = Study 3, 1.7–100.0 μM daily 0–5 dpf, scored 6 dpf, 0.4% DMSO
[6] = Danio rerio, Study 3, 1.7–100.0 μM daily 0–5 dpf, scored 6 dpf, 0.4% DMSO
[7] = Study 3, daily 0–5 dpf, tested 6 dpf

| SMILES | Developmental toxicity outcome [1, 5] | DevTox assay phenotype [1] | DevTox assay phenotype [2] | Developmental neurotoxicity / locomotor activity outcome ([3]; Study 3, daily 0–5 dpf, tested 6 dpf, 0.4% DMSO) | DNT assay phenotype [3] | DNT assay phenotype [4] | EC50 [1, 6] | LOEC for developmental toxicity ([1]; sulfonic acid PFAS study, 1.7–100.0 μM daily 0–5 dpf, scored 6 dpf, 0.4% DMSO) | Concentration causing hyperactivity in D1 period [3, 7] | Concentration causing hyperactivity in D2 period [3, 7] | Concentration causing hyperactivity in L1 period [3, 7] | Concentration causing hyperactivity in L2 period [3, 7] | EC50 [1, 5] |
| --- | --- | --- | --- | --- | --- | --- | --- | --- | --- | --- | --- | --- | --- |
| O=S(=O)(O)C(F)(F)C(F)(F)C(F)(F)C(F)(F)F [PFBS, Perfluorobutanesulfonic acid] | negative | Negative | Positive | did not result in significant locomotor effects; also recorded: negative | Negative^a | Hyperactivity |  |  |  |  |  |  |  |
| O=S(=O)(O)C(F)(F)C(F)(F)C(F)(F)C(F)(F)C(F)(F)C(F)(F)C(F)(F)F [PFHpS, Perfluoroheptanesulfonic acid] |  | Positive^a |  |  | Hyperactivity^a |  | 168 µM | 31.4 µM | 3.1 to 5.5 µM | no effect | 5.5 µM | 3.1 to 5.5 µM |  |
| O=S(=O)(O)C(F)(F)C(F)(F)C(F)(F)C(F)(F)C(F)(F)F [PFPeS, Perfluoropentanesulfonic acid] |  | Positive^a |  |  | Hyperactivity^a |  | 48.8 µM |  | no effect | no effect | 5.5 µM | 3.1 to 5.5 µM | 48.8 µM |
